The source of these data is ChEMBL document CHEMBL2029295, “Discovery and optimization of a potent and selective triazolopyridinone series of c-Met inhibitors” (Bioorg Med Chem Lett, 2012).

A short description of data set [1]: Solubility of the compound in 0.1N HCl. Type of data set: physicochemical.
Data set [2] in a line: Solubility of the compound in phosphate buffered saline. Type of data set: physicochemical.
Data set [3] is described as follows: Solubility of the compound in simulated intestinal fluid. The class given is physicochemical.
A short description of data set [4]: Intrinsic clearance in rat liver microsomes. The class given is ADME, Microsome. The conditions noted are these: read-out: CLH.
Data set [5] in a line: Intrinsic clearance in mouse liver microsomes. The class given is ADME, Microsome. As to conditions: read-out: CLH.
A short description of data set [6]: Intrinsic clearance in human liver microsomes. The class given is ADME, Microsome. The conditions noted are these: read-out: CLH.
A short description of data set [7]: Plasma protein binding in rat by equilibrium dialysis. The class given is ADME, cell-free. As to conditions: read-out: PPB (converted).
A short description of data set [8]: Plasma protein binding in mouse by equilibrium dialysis. The conditions noted are these: read-out: PPB (converted). The class given is ADME, cell-free.
Data set [9] is described as follows: Plasma protein binding in human by equilibrium dialysis. The class given is ADME, cell-free. The conditions noted are these: read-out: PPB (converted).
Data set [10] can be described thus: Clearance in Sprague-Dawley rat at 0.25 mg/kg, iv. The class given is ADME, organism-based. The arrangement: dose 0.25 mg/kg, route intravenous. The conditions noted are these: in vivo.
Data set [11] in a line: Volume of distribution at steady state in Sprague-Dawley rat at 0.25 mg/kg, iv. Type of data set: ADME, organism-based. Also on record: dose 0.25 mg/kg, route intravenous. As to conditions: in vivo, read-out: Vdss.
Data set [12] in a line: Half life in Sprague-Dawley rat at 0.25 mg/kg, iv. The class given is ADME, organism-based. The arrangement: dose 0.25 mg/kg, route intravenous. The conditions noted are these: in vivo.
A short description of data set [13]: AUC (0 to infinity) in Sprague-Dawley rat at 2 mg/kg, po. The class given is ADME, organism-based. Also on record: time infinity, dose 2 mg/kg, route oral. The conditions noted are these: plasma.
The nature of data set [14]: Oral bioavailability in Sprague-Dawley rat at 2 mg/kg. The class given is ADME, organism-based. The conditions noted are these: in vivo.
The target in data set [15] is Vascular endothelial growth factor receptor 2 (Homo sapiens) (UniProt P35968). Kind of data set: Inhibition of VEGFR2 assessed as remaining activity at 1 uM relative to control.
Sequence of Vascular endothelial growth factor receptor 2 (Homo sapiens) (P35968 whole entry): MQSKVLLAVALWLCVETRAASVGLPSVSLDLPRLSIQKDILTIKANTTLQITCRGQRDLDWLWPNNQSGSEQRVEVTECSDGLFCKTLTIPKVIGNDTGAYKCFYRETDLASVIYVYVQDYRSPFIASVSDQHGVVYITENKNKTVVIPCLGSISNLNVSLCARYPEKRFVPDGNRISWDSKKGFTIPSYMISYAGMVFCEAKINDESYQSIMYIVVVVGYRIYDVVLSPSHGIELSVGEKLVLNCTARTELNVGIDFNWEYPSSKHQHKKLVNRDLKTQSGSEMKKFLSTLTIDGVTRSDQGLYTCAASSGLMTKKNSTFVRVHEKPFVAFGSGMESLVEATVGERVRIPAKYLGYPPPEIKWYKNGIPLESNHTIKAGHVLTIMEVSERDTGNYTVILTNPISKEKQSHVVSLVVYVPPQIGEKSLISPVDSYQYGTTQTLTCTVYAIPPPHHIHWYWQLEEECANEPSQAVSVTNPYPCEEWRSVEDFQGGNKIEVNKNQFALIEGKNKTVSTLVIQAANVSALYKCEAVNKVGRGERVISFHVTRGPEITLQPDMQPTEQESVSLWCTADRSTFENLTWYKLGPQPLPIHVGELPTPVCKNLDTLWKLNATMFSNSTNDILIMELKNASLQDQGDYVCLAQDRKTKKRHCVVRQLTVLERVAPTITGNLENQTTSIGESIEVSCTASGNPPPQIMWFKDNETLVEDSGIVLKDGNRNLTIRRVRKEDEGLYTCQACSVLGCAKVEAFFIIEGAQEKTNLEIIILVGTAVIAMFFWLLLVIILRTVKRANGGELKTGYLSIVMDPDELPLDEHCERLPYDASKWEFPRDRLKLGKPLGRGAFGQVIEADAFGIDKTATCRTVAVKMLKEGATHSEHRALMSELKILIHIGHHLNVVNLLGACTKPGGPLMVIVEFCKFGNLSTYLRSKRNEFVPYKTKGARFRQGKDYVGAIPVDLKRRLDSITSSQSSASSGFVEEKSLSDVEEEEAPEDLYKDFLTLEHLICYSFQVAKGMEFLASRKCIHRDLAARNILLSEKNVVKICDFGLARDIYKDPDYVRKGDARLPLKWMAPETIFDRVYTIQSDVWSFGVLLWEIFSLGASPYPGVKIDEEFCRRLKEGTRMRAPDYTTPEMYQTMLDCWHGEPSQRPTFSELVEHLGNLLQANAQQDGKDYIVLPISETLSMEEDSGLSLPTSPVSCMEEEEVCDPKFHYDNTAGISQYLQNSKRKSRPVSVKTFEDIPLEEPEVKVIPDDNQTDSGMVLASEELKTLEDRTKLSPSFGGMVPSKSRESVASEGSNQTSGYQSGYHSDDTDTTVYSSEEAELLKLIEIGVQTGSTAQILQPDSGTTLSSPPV
Data set [16] concerns the target Mast/stem cell growth factor receptor Kit (Homo sapiens) (UniProt P10721). Kind of data set: Inhibition of KIT assessed as remaining activity at 1 uM relative to control.
Data set [17] concerns the target Platelet-derived growth factor receptor beta (Homo sapiens) (UniProt P09619). The data set can be described thus: Inhibition of PDGFRB assessed as remaining activity at 1 uM relative to control.
The next data set has as its system Mus musculus. The data set can be described thus: Inhibition of HGF-induced phosphorylation of c-Met in BALB/c mice mouse liver at 10 mg/kg, po administered 1 to 24 hrs before HGF-induction measured after 5 mins. Type of data set: functional.
A further data set concerns Plasma. Kind of data set: Plasma concentration in BALB/c mouse at 10 mg/kg, po. The class given is ADME, organism-based. The arrangement: dose 10 mg/kg, route oral. As to conditions: in vivo.

Converted amounts (≈) assume the structure as drawn. Where only a bound is given, the exact number is not on record here.

Sequence of Mast/stem cell growth factor receptor Kit (Homo sapiens) (P10721 whole entry): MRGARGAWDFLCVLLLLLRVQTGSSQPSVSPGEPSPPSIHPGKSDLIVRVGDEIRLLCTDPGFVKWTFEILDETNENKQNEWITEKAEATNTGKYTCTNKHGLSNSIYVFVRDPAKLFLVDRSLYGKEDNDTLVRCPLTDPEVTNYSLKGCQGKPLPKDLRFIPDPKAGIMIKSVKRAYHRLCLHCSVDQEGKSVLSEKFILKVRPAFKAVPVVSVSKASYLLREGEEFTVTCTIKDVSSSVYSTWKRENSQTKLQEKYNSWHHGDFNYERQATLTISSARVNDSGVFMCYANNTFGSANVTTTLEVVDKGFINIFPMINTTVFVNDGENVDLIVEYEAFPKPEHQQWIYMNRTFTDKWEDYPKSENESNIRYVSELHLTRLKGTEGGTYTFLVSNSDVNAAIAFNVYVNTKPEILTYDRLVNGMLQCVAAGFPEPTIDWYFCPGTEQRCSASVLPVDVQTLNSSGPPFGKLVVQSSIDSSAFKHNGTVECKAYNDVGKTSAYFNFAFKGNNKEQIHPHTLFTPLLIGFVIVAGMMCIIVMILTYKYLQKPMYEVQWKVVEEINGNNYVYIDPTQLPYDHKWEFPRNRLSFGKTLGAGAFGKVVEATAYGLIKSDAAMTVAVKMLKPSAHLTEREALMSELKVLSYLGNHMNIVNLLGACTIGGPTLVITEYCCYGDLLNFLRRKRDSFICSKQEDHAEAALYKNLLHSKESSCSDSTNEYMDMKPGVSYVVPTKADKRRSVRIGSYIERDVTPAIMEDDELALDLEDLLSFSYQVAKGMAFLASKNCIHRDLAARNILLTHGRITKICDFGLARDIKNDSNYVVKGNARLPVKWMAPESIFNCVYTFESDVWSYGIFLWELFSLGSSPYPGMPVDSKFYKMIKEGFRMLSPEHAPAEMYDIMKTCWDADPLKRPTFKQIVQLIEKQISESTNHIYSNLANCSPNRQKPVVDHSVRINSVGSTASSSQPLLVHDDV
Sequence of Platelet-derived growth factor receptor beta (Homo sapiens) (P09619 whole entry): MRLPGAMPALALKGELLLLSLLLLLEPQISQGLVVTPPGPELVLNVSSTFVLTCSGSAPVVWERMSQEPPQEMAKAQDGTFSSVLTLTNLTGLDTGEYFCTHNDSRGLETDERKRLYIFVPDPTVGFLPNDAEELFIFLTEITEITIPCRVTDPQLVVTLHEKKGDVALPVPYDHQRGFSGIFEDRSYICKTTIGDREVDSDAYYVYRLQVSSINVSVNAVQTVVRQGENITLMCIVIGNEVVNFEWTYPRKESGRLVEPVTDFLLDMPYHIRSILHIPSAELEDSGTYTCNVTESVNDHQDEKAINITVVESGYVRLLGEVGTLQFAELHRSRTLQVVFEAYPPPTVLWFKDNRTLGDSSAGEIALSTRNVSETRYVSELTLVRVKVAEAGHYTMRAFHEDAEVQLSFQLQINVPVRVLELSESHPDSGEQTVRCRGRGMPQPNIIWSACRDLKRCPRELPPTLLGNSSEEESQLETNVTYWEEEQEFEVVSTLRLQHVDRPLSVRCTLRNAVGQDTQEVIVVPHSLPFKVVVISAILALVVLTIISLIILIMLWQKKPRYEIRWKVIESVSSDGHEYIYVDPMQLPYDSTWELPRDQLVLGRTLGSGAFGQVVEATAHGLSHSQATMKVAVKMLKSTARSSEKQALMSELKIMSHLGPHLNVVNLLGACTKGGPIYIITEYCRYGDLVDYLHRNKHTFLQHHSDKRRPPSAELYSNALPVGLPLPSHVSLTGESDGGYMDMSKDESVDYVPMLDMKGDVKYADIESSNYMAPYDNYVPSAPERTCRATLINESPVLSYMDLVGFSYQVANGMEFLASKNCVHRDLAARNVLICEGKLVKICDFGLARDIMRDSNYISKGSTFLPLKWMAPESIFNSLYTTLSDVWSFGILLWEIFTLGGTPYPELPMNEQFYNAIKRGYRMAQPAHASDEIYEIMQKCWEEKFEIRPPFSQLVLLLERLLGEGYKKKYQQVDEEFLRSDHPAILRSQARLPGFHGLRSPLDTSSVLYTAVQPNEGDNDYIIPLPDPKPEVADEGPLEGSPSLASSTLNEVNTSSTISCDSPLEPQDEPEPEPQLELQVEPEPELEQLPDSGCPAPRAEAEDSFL

With `Cc1cc(-n2ccc3nnn([C@@H](C)c4ccc5ncccc5c4)c3c2=O)sn1`, the solubility in data set [1] was not below 200 µg/mL; in [2], 4.5 µg/mL (≈ 11.6 µM); in data set [3], 22.4 µg/mL (≈ 57.7 µM).

In the case of `COCCOc1cnc2ccc(Cn3nnc4ccn(-c5cc(C)ns5)c(=O)c43)cc2c1`, the solubility in data set [1] is 13.7 µg/mL (≈ 30.5 µM); in data set [2] it was 2.5 µg/mL (≈ 5.57 µM); in data set [3], 9.8 µg/mL (≈ 21.9 µM).

On to `Cc1cc(N2CCc3nnn(Cc4ccc5ncccc5c4)c3C2=O)sn1`, for which the figures for the solubility in data set [1], in [2] and in data set [3] were 43.2 µg/mL (≈ 115 µM), 2.2 µg/mL (≈ 5.84 µM) and less than 1 µg/mL, respectively.

For `Cc1cc(-n2ccc3nnn(Cc4ccc5ncccc5c4)c3c2=O)sn1`, the figures for the solubility in [1], in data set [2] and in [3] were 80.1 µg/mL (≈ 214 µM), less than 1 µg/mL and 4.8 µg/mL (≈ 12.8 µM), respectively.

With `O=C1c2c(nnn2Cc2ccc3ncccc3c2)CCN1c1ccccc1`, the solubility is not below 200 µg/mL in [1], not below 200 µg/mL in data set [2] and 60.4 µg/mL (≈ 170 µM) in data set [3].

For `COCCOc1cnc2ccc([C@H](C)n3nnc4ccn(-c5ccc(F)c(F)c5)c(=O)c43)cc2c1`, the solubility in data set [1] is 128 µg/mL (≈ 267 µM); in [2], 11.1 µg/mL (≈ 23.2 µM); in [3], 37.7 µg/mL (≈ 79 µM). The microsomal CLint in [4] was 105 µL/min/mg; in data set [5] it was 98 µL/min/mg; in [6], 120 µL/min/mg. The results for the fraction unbound in data set [7], in data set [8] and in data set [9] were 0.02, 0.044 and 0.045, respectively. This compound had a clearance in data set [10] of 18.8 mL/min/kg. In addition, in [11], the Vd amounted to 2.38 L/kg. The compound further had a half-life in data set [12] of 1.81 h. This compound had an AUC(0-inf) in data set [13] of 638 ng·h/mL. Moreover, the bioavailability in data set [14] turned out to be 36%.

Regarding `COCCOc1cnc2ccc([C@H](C)n3nnc4ccn(-c5cc(C)ns5)c(=O)c43)cc2c1`, the solubility in data set [1] was 37 µg/mL (≈ 80 µM); in data set [2], 8.7 µg/mL (≈ 18.8 µM); in [3] it was 39.7 µg/mL (≈ 85.8 µM). In addition, the Activity amounted to 34% in data set [15], 26% in [16] and 10% in data set [17]. Further, the microsomal CLint in [4] stood at 89 µL/min/mg; in [5], 68 µL/min/mg; in [6], 84 µL/min/mg. The fraction unbound was 0.018 in [7], 0.027 in data set [8] and 0.012 in data set [9]. In data set [10], this compound gave a clearance of 9.32 mL/min/kg. Besides, in [11], the Vd is 2.53 L/kg. For the same compound, in data set [12], the half-life is 3.4 h. Also, the area under the curve AUC(0-inf) in [13] is 1560 ng·h/mL. Further, the bioavailability in data set [14] was 43%. Besides, in the data set on Mus musculus, the inhibition in vivo at 10 mg/kg turned out to be 89%. The concentration in the data set with Plasma was less than 200 nM.
